# Measurements from patent US7291611B2, “Benzimidazolidinone derivatives as muscarinic agents” (ACADIA Pharmaceuticals Inc., priority 2001, dated 2007).
# Experiments:
# [1] = biological target: T1, human dopamine D2 receptor (Homo sapiens, UniProt P14416); assay: [3H]-Spiperone radioligand binding to D2 receptor membranes; settings: tSA cell membranes, 150 pM [3H]-Spiperone; read-out: D2 [3H]Spiperone pIC50 (converted)
# T1 construct: expressed in transfected cells; host or cells: tSA cells
# Experimental: The D2 dopamine receptor subtype was cloned substantially as described by Stormann, Gdula, Weiner and Brann, 1990 [Mol Pharmacol 37, 1-6]. Cell membranes expressing the D2 receptor were prepared by transfecting tSA cells (Chahine, M., Bennet, P. B., George, A. L., Horn, R. (1994) Pfluegers Arch. 427, 136-142) with 10 μg plasmid DNA encoding the human dopamine D2 receptor and 40 μl Superfect (Qiagen). The cells were harvested 48 hours and transfection and membranes were prepared by homogenizing the cells using a Polytron harvester in 20 mM Hepes, 10 mM EDTA, pH 7.4. The homogenate was centrifuged for 30 minutes at 37,000 g. The pellet was homogenized again in 60 ml 20 mM Hepes, 5 mM EDTA. The homogenate was centrifuged for 30 minutes at 37,000 g. The supernatant was discarded. The pellet was homogenized again in 10 ml 20 mM Hepes, 1 mM EDTA. The resultant membranes were frozen at −80° C.
# The membranes were combined with 150 pM [^3H]-Spiperone (Amersham-Pharmacia, 107 Ci/mmol) and ligand concentrations between 1 nM and 10 μM, or haloperidol concentrations between 0.1 nM and 1 μM in 460 μl 20 mM Hepes, 1 mM EDTA, 0.1% (w/v) bovine serum albumin. Nonspecific binding was defined as binding in the presence of 1 μM haloperidol. The membranes were incubated for 4 hours at 37° C., and then filtered onto Packard GFB Filterplates using a Packard harvester. The membranes were dried and 50 μl Microscint (Packard) was added to each well. The amount of bound radioligand was quantified using a Packard Topcount scintillation counter.
# Data were normalized relative to the maximum inhibition of [^3H]-Spiperone binding by 1 μM haloperidol, and the following equation was fitted to the data: % inhibition=minimum+(maximum−minimum)/(1+([ligand]/[IC50])) % inhibition was defined as (maximum−minimum)/(maximum response of cells to haloperidol). pIC50=−log (IC50). NT=not tested. Results
# [2] = biological target: T2, M4 muscarinic receptor (Homo sapiens, UniProt P08173); assay: R-SAT functional assay, muscarinic M4 receptor; type: cell-based; settings: for Emax: NIH3T3, relative to maximum response to carbachol, read-out: M4 % Efficacy; for Emax / EC50: R-SAT, transfected NIH-3T3 cells; for EC50: read-out: M4 pEC50 (converted)
# T2 construct: expressed in transfected cells; host or cells: NIH-3T3 cells (ATCC CRL 1658)
# T2 sequence (P08173 1-479): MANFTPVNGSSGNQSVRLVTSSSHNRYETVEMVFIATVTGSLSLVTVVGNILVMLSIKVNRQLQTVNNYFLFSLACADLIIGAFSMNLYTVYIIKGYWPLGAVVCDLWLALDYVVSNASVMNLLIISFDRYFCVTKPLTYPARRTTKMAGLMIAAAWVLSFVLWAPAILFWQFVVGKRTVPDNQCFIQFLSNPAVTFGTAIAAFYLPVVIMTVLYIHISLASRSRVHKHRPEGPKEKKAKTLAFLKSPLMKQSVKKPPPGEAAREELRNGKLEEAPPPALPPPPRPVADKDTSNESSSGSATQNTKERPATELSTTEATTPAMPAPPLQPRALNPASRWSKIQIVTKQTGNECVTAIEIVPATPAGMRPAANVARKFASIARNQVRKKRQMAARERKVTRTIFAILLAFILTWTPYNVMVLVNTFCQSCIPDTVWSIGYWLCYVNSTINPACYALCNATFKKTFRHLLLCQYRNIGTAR
# Experimental: (§1) The M1 and M4 muscarinic receptor subtypes were cloned substantially as described by Bonner et al., (1987) Science […] p. 527 and Bonner et al, (1988) Neuron 1, p. 403. R-SAT assays were carried out substantially as described in U.S. Pat. No. 5,707,798 and by Braüner-Osbome, H. B. and Brann, M. R. (1995), Eur. J. Pharmacol. 295:93-102. NIH-3T3 cells (available from the American Type Culture Collection as ATCC CRL 1658) were transfected with plasmid DNA encoding the m1 and m4 receptors and plasmid DNA encoding β-galactosidase. Transfected cells were grown in the presence of between 1 nM and 40 μM of the test compound for 5 days. On day 5, the cells were lysed using 0.5% nonidet-P and β-galactosidase expression was quantified using the chromogenic substrate o-nitrophenyl-p-D-galactoside (ONGP).
# (§2) Data were normalized relative to the maximum response of the cells to the muscarinic agonist carbachol, and the following equation was fitted to the data: response=minimum+(maximum−minimum)/(1+([ligand]/EC50)) % Efficacy was defined as (maximum−minimum)/(maximum response of cells to carbachol). pEC50=−log (EC50). Where data gave a bell-shaped curve, “maximum” was defined as the highest observed response.
# [3] = biological target: T3, M1 muscarinic receptor (Homo sapiens, UniProt P11229); assay: R-SAT functional assay, muscarinic M1 receptor; type: cell-based; settings: for Emax: NIH3T3, relative to maximum response to carbachol, read-out: M1 % Efficacy; for Emax / EC50: R-SAT, transfected NIH-3T3 cells; for EC50: read-out: M1 pEC50 (converted)
# T3 construct: expressed in transfected cells; host or cells: NIH-3T3 cells (ATCC CRL 1658)
# T3 sequence (P11229 1-460): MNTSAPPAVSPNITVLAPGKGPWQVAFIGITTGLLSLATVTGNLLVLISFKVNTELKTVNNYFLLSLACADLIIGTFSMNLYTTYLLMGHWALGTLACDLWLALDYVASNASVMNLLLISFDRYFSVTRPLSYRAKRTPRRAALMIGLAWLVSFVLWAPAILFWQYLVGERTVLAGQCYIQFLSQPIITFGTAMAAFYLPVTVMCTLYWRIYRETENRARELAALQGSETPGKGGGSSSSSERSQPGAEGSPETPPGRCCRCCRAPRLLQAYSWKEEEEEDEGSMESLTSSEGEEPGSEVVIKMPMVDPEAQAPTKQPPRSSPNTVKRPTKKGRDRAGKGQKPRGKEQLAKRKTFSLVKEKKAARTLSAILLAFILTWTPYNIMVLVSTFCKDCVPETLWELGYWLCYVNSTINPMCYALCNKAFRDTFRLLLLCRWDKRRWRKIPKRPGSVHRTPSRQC
# Experimental: as §1, §2
# T1 sequence (P14416 1-414 isoform P14416-2): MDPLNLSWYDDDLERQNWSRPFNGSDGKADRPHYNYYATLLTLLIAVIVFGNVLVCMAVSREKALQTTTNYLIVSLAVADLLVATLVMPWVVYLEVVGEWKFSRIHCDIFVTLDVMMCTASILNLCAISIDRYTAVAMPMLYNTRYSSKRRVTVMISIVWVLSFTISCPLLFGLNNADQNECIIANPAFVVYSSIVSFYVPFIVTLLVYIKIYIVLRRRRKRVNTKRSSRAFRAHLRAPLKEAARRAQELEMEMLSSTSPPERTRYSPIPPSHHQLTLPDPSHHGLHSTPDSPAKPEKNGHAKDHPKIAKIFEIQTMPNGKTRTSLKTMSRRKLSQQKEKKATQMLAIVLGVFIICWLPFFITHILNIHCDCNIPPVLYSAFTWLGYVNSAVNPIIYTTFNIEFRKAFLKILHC
SMILES,IC50 [1],binding efficacy for the M4 receptor subtype [2],Emax [2],EC50 [2],binding efficacy for the M1 receptor subtype [3],Emax [3],EC50 [3]
"CC(C)CC=C1CCN(CCCn2c(=O)[nH]c3ccccc32)CC1 [Compound 45NK-70, 1-{3-[4-(3-Methylbutylidene)piperidin-1-yl]propyl}-1,3-dihydrobenzoimidazol-2-one]",0.631 µM,high binding efficacy,40%,0.0794 µM,high binding efficacy,70%,0.0501 µM
"CCCCCC1CCN(CCCn2c(=O)[nH]c3ccccc32)CC1 [Compound 45NK-71, 1-[3-(4-Pentylpiperidin-1-yl)propyl]-1,3-dihydrobenzoimidazol-2-one]",0.398 µM,high binding efficacy,49%,0.251 µM,high binding efficacy,71%,0.1 µM
"CCCCC1CCN(CCCn2c(=O)n(C)c3ccccc32)CC1 [Compound 45NK-110, 1-[3-(4-Butylpiperidin-1-yl)propyl]-3-methyl-1,3-dihydrobenzoimidazol-2-one]",3.16 µM,high binding efficacy,61%,1.26 µM,high binding efficacy,89%,0.1 µM
"CCCOC1CCN(CCCn2c(=O)sc3ccccc32)CC1 [Compound 61KS70-1, 3-[3-(4-Propoxy-piperidin-1-yl)-propyl]-3H-benzothiazol-2-one]",0.316 µM,,112%,0.794 µM,,96%,0.0794 µM
"CCCC=C1CCN(CCCn2c(=O)[nH]c3ccccc32)CC1 [Compound 61KS-12, 1-(3-[4-Butylidenepiperidino]propyl)-1,3-dihydrobenzimidazol-2-one]",1 µM,high binding efficacy,164%,0.0794 µM,high binding efficacy,107%,0.0316 µM
"CCCCC=C1CCN(CCCn2c(=O)[nH]c3ccccc32)CC1 [Compound 61KS-13, 1-(3-[4-Pentylidenepiperidino]propyl)-1,3-dihydrobenzimidazole-2-one]",0.398 µM,high binding efficacy,100%,0.0398 µM,high binding efficacy,106%,0.0398 µM
"CCCCC1CCN(CCCn2c(=O)sc3ccccc32)CC1 [Compound 62KK040d, 3-[3-(4-Butylpiperidin-1-yl)propyl]-3H-benzothiazol-2-one]",0.0794 µM,,93%,0.398 µM,,83%,0.0251 µM
"CCCCCC1CC2CCC(C1)N2CCCn1c(=O)sc2ccccc21 (centres unmarked) [Compound 79KS97, 3-[3-(3-Pentyl-8-aza-bicyclo[3.2.1]oct-8-yl)-propyl]-3H-benzothiazol-2-one]",0.1 µM,,,,,70%,0.00631 µM
"CCCCC1CCN(CCCN2C(=O)Cc3ccccc32)CC1 [Compound 85LM12, 1-(3-(4-Butylpiperidin-1-yl)propyl)-1,3-dihydro-indol-2-one]",0.398 µM,,,,,78%,0.126 µM
"CCCCC1CCN(CC(C)Cn2c(=O)sc3ccccc32)CC1 (centres unmarked) [Compound 85LM14, 3-(3-(4-Butyl-piperidin-1-yl)-2-methyl-propyl)-3H-benzothiazol-2-one]",0.0794 µM,,94%,1.58 µM,,104%,0.0316 µM
"CCCCC1CC2CCC(C1)N2CCCn1c(=O)sc2ccccc21 (centres unmarked) [Compound 97KS96-2, 3-[3-(3-Butyl-8-aza-bicyclo[3.2.1]oct-8-yl)-propyl]-3H-benzothiazol-2-one]",0.1 µM,,50%,,,63%,0.0501 µM

# Continued, values first:
IC50 [1],binding efficacy for the M4 receptor subtype [2],Emax [2],EC50 [2],binding efficacy for the M1 receptor subtype [3],Emax [3],EC50 [3],SMILES
,,,,,98%,0.0251 µM,"CCCOC1CCN(CC(C)Cn2c(=O)sc3ccccc32)CC1 (centres unmarked) [Compound 85LM49B, 3-(3-(4-Propoxy-piperidin-1-yl)-2-methyl-propyl)-3H-benzothiazol-2-one]"
0.0501 µM,,141%,0.794 µM,,99%,0.0316 µM,"CCCCC1CCN(C[C@@H](C)Cn2c(=O)sc3ccccc32)CC1 [Compound 85LM91-78R, 3-(3-(4-Butylpiperidin-1-yl)-(R)-2-methylpropyl)-3H-benzothiazol-2-one]"
0.631 µM,,56%,1.26 µM,,75%,0.2 µM,"CCCCC1CCN(CCCn2c(=O)oc3ccc(F)cc32)CC1 [Compound 86KK22-K, 3-[3-(4-butylpiperidin-1-yl)propyl]-5-fluoro-3H-benzooxazol-2-one]"
0.631 µM,,36%,,,73%,0.1 µM,"CCCCC1CCN(CCCn2c(=O)oc3cccc(C)c32)CC1 [Compound 86KK25-a, 3-[3-(4-butylpiperidin-1-yl]propyl)-4-methyl-3H-benzooxazol-2-one]"
,,63%,0.794 µM,,84%,0.1 µM,"CCCCC1CCN(CCCn2c(=O)oc3ccc(C)cc32)CC1 [Compound 86KKM25-d, 3-[3-(4-butylpiperidin-1-yl)propyl]-5-methyl-3H-benzooxazol-2-one]"
0.251 µM,,,,,71%,0.2 µM,"CCCCC1CCN(CCCn2c(=O)oc3cc(F)ccc32)CC1 [Compound 97KK28, 3-[3-(4-butylpiperidin-1-yl)propyl]-6-fluoro-3H-benzooxazol-2-one]"
